T/C data for 15 compounds are collected here from PubChem BioAssay AID212 (DTP/NCI, 2004).

The experiment deals with BDF1 mice, colon carcinoma 38 sc, T/C %. The experiment in a line: NCI In Vivo Anticancer Drug Screen. Data for tumor model Colon Carcinoma 38 (subcutaneous) in B6D2F1 (BDF1) mice. Conditions: endpoint: median tumor weight (est.), higher = larger tumour. The protocol:
The antitumor activity of compounds was measured in mice bearing transplantable tumors. Survival or tumor size were measured and the results are expressed as the measurement made in the treated group (T) divided by the measurement made in the vehicle treated control group (C). The tumor model used in this assay is Colon Carcinoma 38 (subcutaneous) in B6D2F1 (BDF1) mice

Where [1] appears, read: dose: 50.0 mg/kg/injection, schedule: Q07DX002 (ip), vehicle: saline with Tween-80.
Setting [2] is: dose: 100.0 mg/kg/injection, schedule: Q07DX002 (ip), vehicle: saline with Tween-80.
Where [3] appears, read: dose: 200.0 mg/kg/injection, schedule: Q07DX002 (ip), vehicle: saline with Tween-80.
[4] abbreviates: dose: 25.0 mg/kg/injection, schedule: Q07DX002 (ip), vehicle: saline with Tween-80.
Where [5] appears, read: dose: 25.0 mg/kg/injection, schedule: Q07DX002 (ip), vehicle: saline.
Setting [6] is: dose: 50.0 mg/kg/injection, schedule: Q07DX002 (ip), vehicle: saline.
Setting [7] is: dose: 100.0 mg/kg/injection, schedule: Q07DX002 (ip), vehicle: Klucel (hydroxypropylcellulose) (HPC).
[8] abbreviates: dose: 200.0 mg/kg/injection, schedule: Q07DX002 (ip), vehicle: Klucel (hydroxypropylcellulose) (HPC).
Setting [9] is: dose: 50.0 mg/kg/injection, schedule: Q07DX002 (ip), vehicle: suspension in saline.
Setting [10] is: dose: 100.0 mg/kg/injection, schedule: Q07DX002 (ip), vehicle: suspension in saline.
The mark [11] stands for this setting: dose: 800.0 mg/kg/injection, schedule: Q07DX002 (ip), vehicle: saline.
Setting [12] is: dose: 200.0 mg/kg/injection, schedule: Q07DX002 (ip), vehicle: saline.
Setting [13] is: dose: 25.0 mg/kg/injection, schedule: Q07DX002 (ip), vehicle: Klucel (hydroxypropylcellulose) (HPC).

Structures are written as SMILES. Several values for one entry are separate records, joined by “and”; a condition that tells them apart may be missing. Equal values may be shown once. Inconclusive results are not listed.

Regarding `C[n+]1ccc(Nc2ccc(NC(=O)c3ccc(Nc4cc[n+](C)c5ccc(N)cc45)cc3)cc2)cc1`, the T/C is 99 % of control (dose: 0.5 mg/kg/injection, schedule: Q07DX002 (ip), vehicle: water); 86 % of control (dose: 1.0 mg/kg/injection, schedule: Q07DX002 (ip), vehicle: water); 93 % of control (dose: 2.0 mg/kg/injection, schedule: Q07DX002 (ip), vehicle: water).
For `CS(=O)(=O)Nc1ccc(C(=O)CCN2CCCCCC2)cc1`, the T/C was 96 % of control under setting [1], 86 % of control under setting [2] and 95 % of control under setting [3].
With `CS(=O)(=O)CS(=O)(=O)OCCCl`, the T/C is 86 % of control (dose: 1.5 mg/kg/injection, schedule: Q07DX002 (ip), vehicle: saline); 91 % of control (dose: 3.0 mg/kg/injection, schedule: Q07DX002 (ip), vehicle: saline); 97 % of control (dose: 6.0 mg/kg/injection, schedule: Q07DX002 (ip), vehicle: saline); 155 % of control (dose: 12.0 mg/kg/injection, schedule: Q07DX002 (ip), vehicle: saline); 73 % of control under setting [4].
Turning to `ClC1=C(Cl)C2(Cl)C3C(Cl)C(Cl)CC3C1(Cl)C2(Cl)Cl` (stereo unspecified), the T/C (dose: 9.5 mg/kg/injection, schedule: Q07DX002 (ip), vehicle: saline with Tween-80) was 103 % of control; the T/C (dose: 19.0 mg/kg/injection, schedule: Q07DX002 (ip), vehicle: saline with Tween-80) is 114 % of control; the T/C (dose: 28.0 mg/kg/injection, schedule: Q07DX002 (ip), vehicle: saline + Tween-80 + alcohol) is 102 % of control; the T/C (dose: 28.0 mg/kg/injection, schedule: Q07DX002 (ip), vehicle: saline with Tween-80) was 100 % of control; the T/C (dose: 50.0 mg/kg/injection, schedule: Q07DX002 (ip), vehicle: other) is 63 % of control and 86 % of control; the T/C (dose: 56.0 mg/kg/injection, schedule: Q07DX002 (ip), vehicle: saline + Tween-80 + alcohol) is 86 % of control. For the same compound, the T/C (dose: 56.0 mg/kg/injection, schedule: Q07DX002 (ip), vehicle: saline with Tween-80) is 92 % of control and 93 % of control; the T/C (dose: 100.0 mg/kg/injection, schedule: Q07DX002 (ip), vehicle: other) was 84 % of control; the T/C (dose: 112.0 mg/kg/injection, schedule: Q07DX002 (ip), vehicle: saline with Tween-80) is 100 % of control.
With `O=[Te]=O`, the T/C runs as follows: under setting [5], 98 % of control; under setting [6], 93 % of control.
As for `Cc1ccc2c(ccc(CC(=S)[S-])[n+]2C)c1`, the T/C is 111 % of control and 93 % of control under setting [7]; 122 % of control under setting [8].
With `COc1ccc(C2Oc3cc(OC)ccc3C(=O)C2c2ccccc2)cc1` (stereo unspecified), the T/C by setting is: (dose: 43.0 mg/kg/injection, schedule: Q07DX002 (ip), vehicle: other) 35 % of control; (dose: 72.0 mg/kg/injection, schedule: Q07DX002 (ip), vehicle: other) 56 % of control; (dose: 120.0 mg/kg/injection, schedule: Q07DX002 (ip), vehicle: other) 41 % of control; (dose: 200.0 mg/kg/injection, schedule: Q07DX002 (ip), vehicle: other) 34 % of control; (dose: 333.33 mg/kg/injection, schedule: Q07DX002 (ip), vehicle: other) 82 % of control.
`C=C(NC(=O)C(=C)NC(=O)c1csc(C2=NC3c4csc(n4)C4NC(=O)c5csc(n5)C(C(C)(O)C(C)O)NC(=O)C5CSC(=N5)/C(=C/C)NC(=O)C(C(C)O)NC(=O)c5csc(n5)C3(CC2)NC(=O)C(C)NC(=O)C(=C)NC(=O)C(=C)NC(=O)C(C(C)C)NC2C=Cc3c(C(C)O)cc(nc3C2O)C(=O)OC4C)n1)C(N)=O` (stereo unspecified): the T/C was 95 % of control (dose: 12.5 mg/kg/injection, schedule: Q07DX002 (ip), vehicle: suspension in saline); 98 % of control (dose: 25.0 mg/kg/injection, schedule: Q07DX002 (ip), vehicle: suspension in saline); 111 % of control under setting [9]; 72 % of control under setting [10]; 75 % of control (dose: 200.0 mg/kg/injection, schedule: Q07DX002 (ip), vehicle: suspension in saline); 86 % of control (dose: 400.0 mg/kg/injection, schedule: Q07DX002 (ip), vehicle: suspension in saline).
As to `N=C(N)SCc1cccc2c(=O)cc(-c3ccccc3)oc12`, the T/C under setting [11] was 52 % of control and 69 % of control.
For `Cc1cn(C2CC(F)C(CO)O2)c(=O)[nH]c1=O` (stereo unspecified), the T/C runs as follows: (dose: 50.0 mg/kg/injection, schedule: Q01DX001 (ip), vehicle: Klucel (hydroxypropylcellulose) (HPC)) 204 % of control; (dose: 100.0 mg/kg/injection, schedule: Q01DX001 (ip), vehicle: Klucel (hydroxypropylcellulose) (HPC)) 193 % of control; (dose: 200.0 mg/kg/injection, schedule: Q01DX001 (ip), vehicle: Klucel (hydroxypropylcellulose) (HPC)) 182 % of control; under setting [12], 119 % of control; (dose: 400.0 mg/kg/injection, schedule: Q01DX001 (ip), vehicle: Klucel (hydroxypropylcellulose) (HPC)) 165 % of control; (dose: 400.0 mg/kg/injection, schedule: Q07DX002 (ip), vehicle: saline) 103 % of control. For the same compound, the T/C reads like this: under setting [11], 117 % of control; (dose: 1600.0 mg/kg/injection, schedule: Q07DX002 (ip), vehicle: saline) 100 % of control.
For the compound `O=S1(=O)C=C(c2ccccc2)C(c2ccccc2)=C1`, the T/C runs as follows: (dose: 6.25 mg/kg/injection, schedule: Q07DX002 (ip), vehicle: saline with Tween-80) 112 % of control and 97 % of control; under setting [1], 62 % of control and 80 % of control; under setting [2], 84 % of control; under setting [3], 88 % of control.
On to `CC1(C)OC1CS(=O)c1ccccc1` (stereo unspecified), for which the T/C is, setting by setting: under setting [4], 110 % of control; under setting [1], 105 % of control; under setting [2], 92 % of control; under setting [3], 86 % of control; (dose: 400.0 mg/kg/injection, schedule: Q07DX002 (ip), vehicle: saline with Tween-80) 105 % of control; (dose: 800.0 mg/kg/injection, schedule: Q07DX002 (ip), vehicle: saline with Tween-80) 76 % of control.
Consider `O=C(O)CSc1nc(-c2ccccc2)c(-c2ccccc2)n1-c1ccccn1`, for which the T/C reads like this: (dose: 12.5 mg/kg/injection, schedule: Q07DX002 (ip), vehicle: Klucel (hydroxypropylcellulose) (HPC)) 92 % of control; under setting [13], 83 % of control; (dose: 25.0 mg/kg/injection, schedule: Q07DX002 (ip), vehicle: water) 114 % of control; (dose: 50.0 mg/kg/injection, schedule: Q07DX002 (ip), vehicle: Klucel (hydroxypropylcellulose) (HPC)) 72 % of control; (dose: 50.0 mg/kg/injection, schedule: Q07DX002 (ip), vehicle: water) 112 % of control; under setting [7], 106 % of control. The T/C by setting is: (dose: 100.0 mg/kg/injection, schedule: Q07DX002 (ip), vehicle: water) 95 % of control; under setting [8], 73 % of control; (dose: 200.0 mg/kg/injection, schedule: Q07DX002 (ip), vehicle: water) 89 % of control.
For the compound `CCCCCC[Se][Se]CCCCCC`, the T/C (dose: 3.12 mg/kg/injection, schedule: Q07DX002 (ip), vehicle: Klucel (hydroxypropylcellulose) (HPC)) is 100 % of control and the T/C under setting [13] is 95 % of control.
For `CCN(CC)CCNc1ccc(C)c2sc3ccccc3c(=O)c12`, the T/C is, setting by setting: under setting [5], 47 % of control; under setting [6], 78 % of control; under setting [9], 45 % of control; (dose: 100.0 mg/kg/injection, schedule: Q07DX002 (ip), vehicle: saline) 105 % of control; under setting [10], 24 % of control; under setting [12], 16 % of control.
